System: HEK293T cells carrying the ATF4 luciferase reporter
Test: ATF4-Luc assay, in vitro model of Vanishing Cell White Matter Disease (VWMD)
Type: cell-based
Settings: Homo sapiens, HEK-293T, 1 μg/mL tunicamycin, 7 hours, One Glo luminescence
How it was run: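 Stable HEK293T line with human ATF4 5′-UTR–firefly luciferase reporter treated with 1 μg/mL tunicamycin plus 200 nM compound for 7 h. Luminescence read; EC50 derived.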

| Compound | EC50 |
| --- | --- |
| Cn1c(=O)n(C)c2cc(C(=O)NC34CC(NC(=O)COc5ccc(Cl)c(F)c5)(C3)C4)ccc21 [Compound 776, N-{3-[2-(4-chloro-3-fluorophenoxy)acetamido]bicyclo[1.1.1]pentan-1-yl}-1,3-dimethyl-2-oxo-2,3-dihydro-1H-benzimidazole-5-carboxamide] | > 2000 nM |
| O=C(COc1ccc(Cl)c(F)c1)NC12CC(NS(=O)(=O)c3ccc(Cl)cn3)(C1)C2 [Compound 661, 2-(4-chloro-3-fluorophenoxy)-N-{3-[(5-chloropyridine-2-sulfonyl)amino]bicyclo[1.1.1]pentan-1-yl}acetamide] | > 2000 nM |
| COCc1nc(C(=O)NC23CC(NC(=O)COc4ccc(Cl)c(Cl)c4)(C2)C3)cs1 [Compound 925, N-{3-[2-(3,4-dichlorophenoxy)acetamido]bicyclo[1.1.1]pentan-1-yl}-2-(methoxymethyl)-1,3-thiazole-4-carboxamide] | < 50 nM |
| Cc1c(-c2cc(C(=O)NC34CC(NC(=O)COc5ccc(Cl)c(F)c5)(C3)C4)no2)cnn1C [Compound 840, N-{3-[2-(4-chloro-3-fluorophenoxy)acetamido]bicyclo[1.1.1]pentan-1-yl}-5-(1,5-dimethyl-1H-pyrazol-4-yl)-1,2-oxazole-3-carboxamide] | 1000 to 2000 nM |
| O=C(COc1ccc(Cl)c(F)c1)NC12CC(NC(=O)c3cnc4ccccc4c3)(C1)C2 [Compound 587, N-{3-[2-(4-chloro-3-fluorophenoxy)acetamido]bicyclo[1.1.1]pentan-1-yl}quinoline-3-carboxamide] | 50 to 250 nM |
| O=C(COc1ccc(Cl)c(F)c1)NC12CCC(NC(=O)c3ccc(C4CC4)cn3)(CC1)CC2O (stereo not drawn) [Compound 938, N-{4-[2-(4-chloro-3-fluorophenoxy)acetamido]-3-hydroxybicyclo[2.2.2]octan-1-yl}-5-cyclopropylpyridine-2-carboxamide] | 50 to 250 nM |
| CN(CC1CCC1)c1cnc(C(=O)NC23CC(NC(=O)COc4ccc(Cl)c(F)c4)(C2)C3)cn1 [Compound 420, N-{3-[2-(4-chloro-3-fluorophenoxy)acetamido]bicyclo[1.1.1]pentan-1-yl}-5-[(cyclobutylmethyl)(methyl)amino]pyrazine-2-carboxamide] | > 2000 nM |
| O=C(COc1ccc(C(F)(F)F)nc1)NC12CC(NC(=O)c3cnc(C(F)F)cn3)(C1)C2 [Compound 455, 5-(difluoromethyl)-N-[3-(2-{[6-(trifluoromethyl)pyridin-3-yl]oxy}acetamido)bicyclo[1.1.1]pentan-1-yl]pyrazine-2-carboxamide] | > 2000 nM |
| CC(C)(C)c1cc(C(=O)NC23CCC(NC(=O)COc4ccc(Cl)c(F)c4)(CC2)C(O)C3)on1 (stereo not drawn) [Compound 353, 3-tert-butyl-N-{4-[2-(4-chloro-3-fluorophenoxy)acetamido]-3-hydroxybicyclo[2.2.2]octan-1-yl}-1,2-oxazole-5-carboxamide] | 50 to 250 nM |
| O=C(COc1ccc(Cl)c(F)c1)NC12CC(NC(=O)c3cc(N4CCCC4)ccn3)(C1)C2 [Compound 181, N-{3-[2-(4-chloro-3-fluorophenoxy)acetamido]bicyclo[1.1.1]pentan-1-yl}-4-(pyrrolidin-1-yl)pyridine-2-carboxamide] | 250 to 1000 nM |
| O=C(COc1ccc(Cl)cc1)NC12CC(Nc3cc(-c4ccc(Cl)cc4)on3)(C1)C2 [Compound 265, 2-(4-chlorophenoxy)-N-(3-{[5-(4-chlorophenyl)-1,2-oxazol-3-yl]amino}bicyclo[1.1.1]pentan-1-yl)acetamide] | < 50 nM |
| Cn1nc(C(F)F)cc1C(=O)NC12CCC(NC(=O)COc3ccc(Cl)c(F)c3)(CC1)C[C@@H]2O [Compound 413, N-{(2S)-4-[2-(4-chloro-3-fluorophenoxy)acetamido]-2-hydroxybicyclo[2.2.2]octan-1-yl}-3-(difluoromethyl)-1-methyl-1H-pyrazole-5-carboxamide] | < 50 nM |
| O=C(COc1ccc2c(c1)OC(F)(F)O2)NC12CC(NC(=O)c3ccncc3)(C1)C2 [Compound 418, N-(3-{2-[(2,2-difluoro-2H-1,3-benzodioxol-5-yl)oxy]acetamido}bicyclo[1.1.1]pentan-1-yl)pyridine-4-carboxamide] | > 2000 nM |
| COc1cc(C(=O)NC23CC(NC(=O)COc4ccc(Cl)c(F)c4)(C2)C3)on1 [Compound 253, N-{3-[2-(4-chloro-3-fluorophenoxy)acetamido]bicyclo[1.1.1]pentan-1-yl}-3-methoxy-1,2-oxazole-5-carboxamide] | 50 to 250 nM |
| O=C(COc1ccc(Cl)c(F)c1)NC12CC(NC(=O)c3cnn(C(F)F)c3)(C1)C2 [Compound 724, N-{3-[2-(4-chloro-3-fluorophenoxy)acetamido]bicyclo[1.1.1]pentan-1-yl}-1-(difluoromethyl)-1H-pyrazole-4-carboxamide] | 250 to 1000 nM |
| Cc1nc(C(=O)NC23CC(NC(=O)COc4ccc(Cl)c(F)c4)(C2)C3)c(C)o1 [Compound 795, N-{3-[2-(4-chloro-3-fluorophenoxy)acetamido]bicyclo[1.1.1]pentan-1-yl}-2,5-dimethyl-1,3-oxazole-4-carboxamide] | > 2000 nM |
| O=C(COc1ccc(Cl)c(F)c1)NC12CC(NC(=O)c3cnc(C4=CCC(O)CC4)o3)(C1)C2 (stereo not drawn) [Compound 163, N-{3-[2-(4-chloro-3-fluorophenoxy)acetamido]bicyclo[1.1.1]pentan-1-yl}-2-(4-hydroxycyclohex-1-en-1-yl)-1,3-oxazole-5-carboxamide] | 1000 to 2000 nM |

| Compound | EC50 |
| --- | --- |
| O=C(COc1ccc(Cl)c(F)c1)NC12CC(NC(=O)c3ccc(OC(F)(F)F)cc3)(C1)C2 [Compound 321, N-{3-[2-(4-chloro-3-fluorophenoxy)acetamido]bicyclo[1.1.1]pentan-1-yl}-4-(trifluoromethoxy)benzamide] | 50 to 250 nM |
| O=C(COc1ccc(F)c(F)c1)NC12CC(Nc3cncc(-c4cccnc4)n3)(C1)C2 [Compound 743, 2-(3,4-difluorophenoxy)-N-(3-{[6-(pyridin-3-yl)pyrazin-2-yl]amino}bicyclo[1.1.1]pentan-1-yl)acetamide] | > 2000 nM |
| O=C(COc1ccc(Cl)c(F)c1)NC12CCC(NC(=O)c3cnccn3)(CC1)C[C@@H]2O [Compound 670, N-{(3S)-4-[2-(4-chloro-3-fluorophenoxy)acetamido]-3-hydroxybicyclo[2.2.2]octan-1-yl}pyrazine-2-carboxamide] | < 50 nM |
| CCc1nc(C)c(C(=O)NC23CC(NC(=O)COc4ccc(Cl)c(F)c4)(C2)C3)s1 [Compound 294, N-{3-[2-(4-chloro-3-fluorophenoxy)acetamido]bicyclo[1.1.1]pentan-1-yl}-2-ethyl-4-methyl-1,3-thiazole-5-carboxamide] | 50 to 250 nM |
| CCc1ocnc1C(=O)NC12CC(NC(=O)COc3ccc(Cl)c(F)c3)(C1)C2 [Compound 859, N-{3-[2-(4-chloro-3-fluorophenoxy)acetamido]bicyclo[1.1.1]pentan-1-yl}-5-ethyl-1,3-oxazole-4-carboxamide] | > 2000 nM |
| Cn1cc(C(=O)NC23CC(NC(=O)COc4ccc(Cl)c(F)c4)(C2)C3)c(C(F)(F)F)n1 [Compound 868, N-{3-[2-(4-chloro-3-fluorophenoxy)acetamido]bicyclo[1.1.1]pentan-1-yl}-1-methyl-3-(trifluoromethyl)-1H-pyrazole-4-carboxamide] | > 2000 nM |
| CC(C)(C)OC(=O)NCc1ccnc(C(=O)NC23CC(NC(=O)COc4ccc(Cl)c(F)c4)(C2)C3)c1 [Compound 192, tert-butyl {[2-({3-[2-(4-chloro-3-fluorophenoxy)acetamido]bicyclo[1.1.1]pentan-1-yl}carbamoyl)pyridin-4-yl]methyl}carbamate] | 250 to 1000 nM |
| CCc1ccnc(C(=O)NC23CC(NC(=O)COc4ccc(Cl)c(F)c4)(C2)C3)c1 [Compound 197, N-{3-[2-(4-chloro-3-fluorophenoxy)acetamido]bicyclo[1.1.1]pentan-1-yl}-4-ethylpyridine-2-carboxamide] | 50 to 250 nM |
| O=C(COc1ccc(Cl)c(F)c1)NC12CCC(NC(=O)c3cccnn3)(CC1)C(O)C2 (stereo not drawn) [Compound 227, N-{4-[2-(4-chloro-3-fluorophenoxy)acetamido]-2-hydroxybicyclo[2.2.2]octan-1-yl}pyridazine-3-carboxamide] | 250 to 1000 nM |
| O=C(COc1ccc(Cl)c(F)c1)NC12CC(NC(=O)c3ccc4nccn4c3)(C1)C2 [Compound 811, N-{3-[2-(4-chloro-3-fluorophenoxy)acetamido]bicyclo[1.1.1]pentan-1-yl}imidazo[1,2-a]pyridine-6-carboxamide] | > 2000 nM |
| O=C(COc1ccc(Cl)c(F)c1)NC12CC(NC(=O)c3cncc(N4CCOCC4)n3)(C1)C2 [Compound 894, N-{3-[2-(4-chloro-3-fluorophenoxy)acetamido]bicyclo[1.1.1]pentan-1-yl}-6-(morpholin-4-yl)pyrazine-2-carboxamide] | 250 to 1000 nM |
| O=C(COc1ccc(Cl)c(F)c1)NC12CCC(NC(=O)c3onc4ccccc34)(CC1)C(O)C2 (stereo not drawn) [Compound 332, N-{4-[2-(4-chloro-3-fluorophenoxy)acetamido]-2-hydroxybicyclo[2.2.2]octan-1-yl}-2,1-benzoxazole-3-carboxamide] | > 2000 nM |
| O=C(COc1ccc(Cl)c(F)c1)NC12CC(NC(=O)c3ccnc(CO)c3)(C1)C2 [Compound 741, N-{3-[2-(4-chloro-3-fluorophenoxy)acetamido]bicyclo[1.1.1]pentan-1-yl}-2-(hydroxymethyl)pyridine-4-carboxamide] | > 2000 nM |
| O=C(COc1ccc(Cl)cc1)NC12CC(NC(=O)c3cnc(C(F)F)cn3)(C1)C2 [Compound 202, N-{3-[2-(4-chlorophenoxy)acetamido]bicyclo[1.1.1]pentan-1-yl}-5-(difluoromethyl)pyrazine-2-carboxamide] | 50 to 250 nM |
| Cc1nc(C)c(C(=O)NC23CCC(NC(=O)COc4ccc(Cl)c(F)c4)(CC2)C(O)C3)s1 (stereo not drawn) [Compound 446, N-{4-[2-(4-chloro-3-fluorophenoxy)acetamido]-3-hydroxybicyclo[2.2.2]octan-1-yl}-2,4-dimethyl-1,3-thiazole-5-carboxamide] | 250 to 1000 nM |
| O=C(COc1ccc(Cl)c(F)c1)NC12CC(NC(=O)c3ccnnc3)(C1)C2 [Compound 762, N-{3-[2-(4-chloro-3-fluorophenoxy)acetamido]bicyclo[1.1.1]pentan-1-yl}pyridazine-4-carboxamide] | > 2000 nM |
